Counter-ions that a name gives are not always drawn.

The target in this assay is T1, σ1-receptor (Cavia porcellus, UniProt Q60492).
T1 construct: Guinea pig brains were homogenized in 10 vols; (w/v) of Tris-HCl 50 mM 0.32 M sucrose; from tissue; host or cells: guinea pig brain membranes
T1 sequence (Q60492 whole entry): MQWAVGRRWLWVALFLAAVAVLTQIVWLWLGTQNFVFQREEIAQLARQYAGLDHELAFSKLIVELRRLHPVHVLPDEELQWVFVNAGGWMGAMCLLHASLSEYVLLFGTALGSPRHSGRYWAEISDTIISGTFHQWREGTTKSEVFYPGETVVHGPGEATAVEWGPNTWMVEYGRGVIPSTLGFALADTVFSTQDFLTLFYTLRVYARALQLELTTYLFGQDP
The experiment in a line: σ1-receptor binding assay, [3H]-(+)-pentazocine, guinea pig brain membranes. The settings on record: radioligand [3H]-(+)-pentazocine at 5.0 nM; guinea pig brain membrane; 150 min at 37° C.; nonspecific binding with 1 μM haloperidol. Here is the method:
Brain membrane preparation and binding assays for the σ1-receptor were performed as described (DeHaven-Hudkins, D. L., L. C. Fleissner, and F. Y. Ford-Rice, 1992, Characterization of the binding of [^3H](+)pentazocine to σ recognition sites in guinea pig brain, Eur. J. Pharmacol. 227, 371-378) with some modifications. Guinea pig brains were homogenized in 10 vols. (w/v) of Tris-HCl 50 mM 0.32 M sucrose, pH 7.4, with a Kinematica Polytron PT 3000 at 15000 r.p.m. for 30 s. The homogenate was centrifuged at 1000 g for 10 min at 4° C. and the supernatants collected and centrifuged again at 48000 g for 15 min at 4° C. The pellet was resuspended in 10 volumes of Tris-HCl buffer (50 mM, pH 7.4), incubated at 37° C. for 30 min, and centrifuged at 48000 g for 20 min at 4° C. Following this, the pellet was re-suspended in fresh Tris-HCl buffer (50 mM, pH 7.4) and stored on ice until use.
The radioligand used was [^3H]-(+)-pentazocine at 5.0 nM and the final volume was 200 μl. The incubation was initiated with the addition of 100 μl of membrane at a final tissue concentration of approximately 5 mg tissue net weight/mL and the incubation time was 150 m. at 37° C. After incubation, the membranes were collected onto pretreated glass fiber filterplate (MultiScreen-FC, Millipore), with polyethylenimine 0.1%. The filters were washed two times with 200 μl of washing buffer (50 mM Tris Cl, pH=7.4) and then 25 μl of Ecoscint H liquid scintillation cocktail were added. Microplates were allowed to set for several hours and then quantified by liquid scintillation spectrophotometry (1450 Microbeta, Wallac). Nonspecific binding was determined with 1 μM haloperidol.
Take `c1c(OCCCN2CCCCC2)nn2c1CCCC2` [Example 99, 2-(3-(piperidin-1-yl)propoxy)-4,5,6,7-tetrahydropyrazolo[1,5-a]pyridine maleate]: affinity was put at a Ki of 97.2 nM. With `c1ccc2c(c1)COC21CCN(CCCCOCc2cc3ccccn3n2)CC1` [Example 6, 1′-(4-(pyrazolo[l,5-a]pyridin-2-ylmethylpyrazolo[1,5-a]pyridin-2-ylmethoxy)butyl)-3H-spiro[isobenzofuran-1,4′-piperidine] maleate], the Ki (usually a dissociation constant, usually derived from enzyme kinetics or from competition with a known ligand) was 23.3 nM. As to `c1ccn2nc(OCCCCN3CCN(C4CCCCC4)CC3)cc2c1` [Example 29, 2-(4-(4-cyclohexylpiperazin-1-yl)butoxy)pyrazolo[1,5-a]pyridine dimaleate], the Ki worked out at 11.3 nM. As for `CN(CCOc1cc2n(n1)CCCC2)C1CCN(Cc2ccccc2)CC1` [Example 72, 1-benzyl-N-methyl-N-(2-(4,5,6,7-tetrahydropyrazolo[1,5-a]pyridin-2-yloxy)ethyl)piperidin-4-amine maleate], the figure is 35 nM. With `CCCN(CCCCOc1cc2ccccn2n1)CC1CC1` [Example 35, N-(cyclopropylmethyl)-N-propyl-4-(pyrazolo[1,5-a]pyridin-2-yloxy)butan-1-amine maleate] the figure was 10.6 nM.

In turn, `CC(C)(C)C1CCN(CCCCOc2nn3c(c2Cl)CCCC3)CC1` [Example 105, 2-(4-(4-tert-butylpiperidin-1-yl)butoxy)-3-chloro-4,5,6,7-tetrahydropyrazolo[1,5-a]pyridine maleate] returned a Ki of 13.3 nM.

`c1ccn2nc(COCCCCNC34CC5CC(CC(C5)C3)C4)cc2c1` [Example 5, N-adamantyl-4-(pyrazolo[1,5-a]pyridin-2-ylmethylpyrazolo[1,5-a]pyridin-2-ylmethoxy)butan-1-amine maleate] displayed a Ki of 42.3 nM.

With `CC(C)(C)C1CCN(CCCCOc2cc3n(n2)CCCC3)CC1` [Example 65, 2-(4-(4-tert-butylpiperidin-1-yl)butoxy)-4,5,6,7-tetrahydropyrazolo[1,5-a]pyridine maleate], affinity was put at a Ki of 8.3 nM. For the compound `CC(C)(C)C1CCN(CCOc2cc3ccccn3n2)CC1` [Example 39, 2-(2-(4-tert-butylpiperidin-1-yl)ethoxy)pyrazolo[1,5-a]pyridine maleate], affinity was put at a Ki of 6.35 nM. `CN(CCOc1nn2ccccc2c1I)Cc1ccccc1` [Example 106, N-benzyl-2-(3-iodopyrazolo[1,5-a]pyridin-2-yloxy)-N-methylethanamine oxalate] yielded a Ki of 5.8 nM.

(Values after patent US9487513B2, “Substituted pyrazolo[1,5-A]pyridines, their preparation and use as medicaments” (LABORATORIOS DEL DR. ESTEVE S.A., priority 2012, dated 2016).)
